This is an account of results in patent US20020111314A1, “Novel stimulation of gene expression and protein synthesis of heat shock protein 72/73 (Hsp 70)” (The Trustees of Columbia University, priority 1995, published 2002).

Numbered stars: 1 amine (or outer) side, 2 acyl side, 3 side chain; on linkers, the order of the positions; unused ones are H or OH. Bridge positions count the residues as written; N and C are the ends. Square brackets hold non-standard residues; d marks the D form. Peptide text beside a SMILES is read from it. I, II: the chains in the order shown. * marks the point of attachment. Actinocin(9to1) = Cc1c2oc3c(C)ccc(C(=O)[*:1])c3nc-2c(C(=O)[*:2])c(N)c1=O; Sta = CC(C)C[C@H](N)[C@@H](O)CC(=O)O; NMeV = CN[C@H](C(=O)O)C(C)C; Isovaleryl = CC(C)CC(=O)*; Cbz = O=C(OCc1ccccc1)*; Sar = CNCC(=O)O

Holding throughout (assay type): cell-based, human
For one data set, the system named is Hsp70. Nature of the data set: Hsp70 induction in HepG2 cells ([3H]-leucine labeling, denaturing immunoprecipitation). The settings on record: HepG2; for induction of Hsp70 by protease inhibitors (FIG. 3A): 4 h pre-treatment, ALLN 40, ALLM 40, leupeptin 50, pepstatin A 50, E-64d 25 μg/ml, PMSF 1 mM, aprotinin 100 KIU/ml. How it is done:
HepG2 cells were grown up to 95% confluence and then preincubated for 4 hours in a 37° C. incubator with serum-free minimum essential medium (MEM), followed by radiolabeling with 3H-leucine (150 μCi/ml) dissolved in serum-free, leucine-free medium. Preincubation and labeling medium each contained 1.5% bovine serum albumin (BSA) plus different concentrations of ALLN as indicated. After labeling, cells were collected and lysed, and Hsp70 was immunoprecipitated under denaturing conditions as described under Experimental Details. Cell lysates containing an equal amount of TCA-insoluble radioactivity were used for immunoprecipitation. (A): The immunoprecipitates were analyzed by sodium dodecyl sulfate-polyacryamide gel electrophoresis (SDS-PAGE) and fluorography. Numbers on the left-hand side denote molecular markers. (B): The Hsp70 radioactivity was quantitated by scintillation counting and plotted. All the values were presented as means±SD from three individual culture dishes.
(§1) FIGS. 3A-3B: Effects of the other protease inhibitors on Hsp70 biosynthesis in HepG2 cells. HepG2 cells were preincubated in serum-free MEM containing either 1.5% BSA alone (Control), or BSA plus 40 μg/ml of ALLN, 40 μg/ml of ALLM, 50 μg/ml of leupeptin, 50 μg/ml of pepstatin A, 25 μg/ml of E-64d, 1 mM of phenylmethylsulfonyl fluoride (PMSF), 100 KIU/ml of apotinin, 1 mM of Benzamidine (Benz), 200 μM of calpain inhibitor peptide (CIP). Radiolabeling (in the presence of protease inhibitors), lysis and immunoprecipitation were performed as described in FIG. 1. The Hsp70 specific radioactivity (A) and the amount of total incorporated radioactivity (TCA-cpm) (B) were compared with each other. All the values were presented as the mean±SD from three individual culture dishes.
FIGS. 9A-9B: Effects of proteasome inhibitors on Hsp70 induction. HepG2 cells were preincubated with the proteasome inhibitors MG132 at a final concentration of either 10 μM or 30 μM (A), or lactacystin at 10 μM (B) for 4 hours under conditions described in FIG. 3. These cells were then subjected to radiolabeling (30 min), cell lysis, and immunoprecipitation with anti-Hsp70 antibody. The experiments with MG132 (A) were repeated twice; the effects of lactacystin (B) were studied in triplicate culture dishes.
ALLN, leupeptin, mouse anti-human Hsp72/73 monoclonal antibody, a secondary antibody conjugated with horseradish peroxidase (HRP) (goat anti-rabbit immunoglubin G [IgG]), and rabbit anti-rat IgG antibody were from Boehringer Mannheim Co. Anti-Human Hsp25 and anti-human Hsp60 monoclonal antibodies, ALLM, Calpain inhibitor peptide (CIP), dimethyl sulfoxide (DMSO) and dithiothreitol (DTT) were from Sigma. Human Hsp70 oligonucleotide probe was from Oncogene Science. This oligonucleotide was ^32P labeled at the 5′-end by T4 Kinase, which was from Biolabs. ^32P was from ICN Pharmaceutical Inc. L-[4,5-^3H] leucine was from Amersham Co. Anti-human Bip (immunoglobulin heavy chain binding protein, also called Grp78), anti-human Hsp27, anti-human Hsp60, and anti-human Hsp90 monoclonal antibodies were from Stress Genes. Anti-human Hsp86 and Hsp104 antibodies were from Affinity Bioreagent Inc. Nitrocellular transfer and immobilization membranes were from Schleicher & Schuell, Keene, N.H. RNA extraction kits were from Biotect, Tex. The polyclonal antibody against the human HSF1 protein was a generous gift from Dr. Carl Wu of the National Institute of Health (Rabindran, et al., 1993). Ethylene glycol bis(succunimidylsuccinate) (EGS) was from Pierce. Cbz-leucyl-leucyl-leucinal (MG132) was a gift of Dr. H. Ploegh at the Massachusetts Institute of Technology. All the other tissue culture supplies and chemicals were obtained from supplies as previously described (Dixon, et al., 1991). The HepG2 cell culture conditions were maintained as previously described (Dixon, et al., 1991).

The next data set relates to hsp70, i.e. hsp72, mRNA. Nature of the data set: Northern blot of hsp70 (hsp72) mRNA in HepG2 cells. Particulars: ALLN 40 μg/ml plus actinomycin D 10 μg/ml or cycloheximide 50 μg/ml, 4 hours. Here is the method: After 4 hours treatment at 37° C., cells were harvested. (B). […] The total RNA was prepared, and equal amounts of the samples were loaded and run on a 1% formaldehyde-agarose gel, blotted onto a nylon membrane, and subsequently hybridized with specific synthetic oligonucleotide probes for hsp70 mRNA as described under Experimental Details. The position of 28S and 18S rRNA are shown for reference.
Equal amounts of tRNA samples (10 μg) were size-fractionated on a 1% agarose-formaldehyde gel according to the methods described (Maniatis, et al., 1982) and transferred to a piece of QIAGEN plus nylon membrane. To determine loading and transfer efficiency, RNA was stained with ethidium bromide before and after transfer. The membrane was baked for 30 min. at 80° C. in vacuo (a vacuum) followed by UV cross-linking. It was then incubated for 4 hours at 65° C. in a prehybridization mixture containing 10% dextran sulfate, 1% SDS, 1M sodium chloride, 50 mM Tris-HCl (pH 7.5) and 100 μg/ml denatured salmon sperm DNA. […] The membrane was then washed four times with 2×SSC, 0.1% SDS at room temperature, one time at 65° C. for 30 min., and one time at room temperature again for 5 min., and finally rinsed with 2×SSC at room temperature.

A further data set relates to HSF1. Nature of the data set: HSF1 steady-state level and trimerization (Western blot, EGS cross-linking) in HepG2 cells. Here is the method:
HepG2 cells were treated with serum-free MEM containing 1.5% BSA for 2 hours at 37° C. without any additions (lane 1), at 37° C. but containing 40 μg/ml of ALLN in the medium (lane 2), at 37° C. in a medium containing both ALLN and 50 μg/ml of cycloheximide (lane 3), at 42° C. alone (lane 4), or at 42° C. plus cycloheximide in the medium (lane 5). Cell lysates were prepared as described under Experimental Details. The lysates were either directly run on the SDS-PAGE (A) to show the steady-state protein levels of HSF1 or subjected to cross-linking with ethylene glycol bis sucrinimidylsuccinate (EGS) before running the gel (B) to show the oligomeric forms of HSF1. The proteins were then transfered to a nitrocellulose membrane and immunoblotted with anti-human HSF1 antibody. Arrows on the right side indicates the monomeric, dimeric or trimeric forms of HSF1, respectively. This experiment was repeated three times with identical results.
Total RNA was prepared using the procedure of Chomczynski and Sacchi (Chomczynski, et al., 1987) and a commercially prepared reagent, TRISOLV™ (Biotecx Laboratories Inc., TX). Equal amounts of tRNA samples (10 μg) were size-fractionated on a 1% agarose-formaldehyde gel according to the methods described (Maniatis, et al., 1982) and transferred to a piece of QIAGEN plus nylon membrane. To determine loading and transfer efficiency, RNA was stained with ethidium bromide before and after transfer. The membrane was baked for 30 min. at 80° C. in vacuo (a vacuum) followed by UV cross-linking. It was then incubated for 4 hours at 65° C. in a prehybridization mixture containing 10% dextran sulfate, 1% SDS, 1M sodium chloride, 50 mM Tris-HCl (pH 7.5) and 100 μg/ml denatured salmon sperm DNA. Hybridization was carried out for 18 hours at 65° C. in the same buffer with a ^32P-labeled (1×10^6 cpm/ml) 40-mer oligonucleotide probe to the untranslated 5′ region of a human hsp70 gene (Oncogene Science). […] The membrane was then washed four times with 2×SSC, 0.1% SDS at room temperature, one time at 65° C. for 30 min., and one time at room temperature again for 5 min., and finally rinsed with 2×SSC at room temperature. This membrane was air dried and exposed to X-ray film at −80° C. for 48 hours. For measurement of the steady-state HSF1 protein levels, whole cell extracts were prepared by lysing the cells directly with 2×SDS-sample buffer (Maniatis, et al., 1982). For chemical cross-linking experiments, whole-cell extracts were prepared as described (Mosser, et al., 1988). Briefly, the cold PBS-washed cell pellets were quickly and repeatedly frozen in liquid nitrogen. […]

The next data set relates to HepG2 cells. Nature of the data set: Total incorporation of radiolabel (TCA cpm) as indicator of cell toxicity in HepG2 cells. Particulars: MG132 10 or 30 μM, lactacystin 10 μM, data not shown. How it is done:
as §1
Preincubation and labeling media each contained either 1.5% bovine serum albumin (BSA) alone, or BSA plus ALLN (40 μg/ml except as otherwise indicated), or BSA plus other protease inhibitors at concentrations indicated in the figure legends. At the indicated times, cells were removed from the 37° C. incubator and placed on ice, washed with cold phosphate-buffer saline (PBS) twice and lysed with lysis buffer containing 1% Triton X-100 (TX100), 1% deoxycholic acid (DOC) and 0.1% SDS in PBS containing proteinase inhibitors: 2 mM phenylmethylsulfonyl fluoride (PMSF); 2 μg/ml ALLN; 2 μg/ml leupeptin; and 2 μg/ml aprotinin. After a 30 min. incubation with lysis buffer at 4° C., the lysates were centrifuged at 14,000 g in a microcentrifuge for 5 min., and the supernatants were adjusted to 1% SDS concentration and boiled for 5 min. to denature the proteins. 1% TX100 was then added to dilute the lysates to a final concentration of 0.1% SDS. Cell lysates containing equal amounts of trichloroacetic acid (TCA)-insoluble radioactivity were used for immunoprecipitations by incubating with individual monoclonal antibody (1 μg/ml) for 2.5 hours at 4° C. Protein-A Sepharose 4B was added afterwards and the lysates incubated for another 1.5 hours at 4° C. to collect the immunocomplexes. […]

Turning to `O=S(=O)(F)Cc1ccccc1` [PMSF, phenylmethylsulfonyl fluoride], in the data set on Hsp70, the “induction of Hsp70 by protease inhibitors (FIG. 3A)” value is given as “No induction”.
Same read-out and setting: in the case of `CC(C)CC(=O)N[C@H](C(=O)N[C@H](C(=O)N[C@@H](CC(C)C)[C@@H](O)CC(=O)N[C@@H](C)C(=O)N[C@@H](CC(C)C)[C@@H](O)CC(=O)O)C(C)C)C(C)C` [pepstatin] (Isovaleryl-VV[Sta]A[Sta]-OH) it was “No induction”.
In the case of `C[C@@H]1C[C@@H]([C@H](O)CC2CC(=O)NC(=O)C2)C(=O)[C@@H](C)C1` [cycloheximide], the “effect of co-treatment on ALLN-induced increase in hsp72 mRNA” value in the data set with hsp70, i.e. hsp72, mRNA is recorded as “abolished”. In the data set with HSF1 (42° C. plus cycloheximide 50 μg/ml), the “effect on heat shock-associated HSF1 trimerization” value is recorded as “did not, however, affect”. For the same molecule, the “effect of cotreatment on ALLN-induced HSF1 trimerization” value with HSF1 (ALLN 40 μg/ml plus cycloheximide 50 μg/ml, 37° C.) is on record as “abolished the effect of ALLN on HSF1 trimerization”.
Take `CC(=O)N[C@@H](CC(C)C)C(=O)N[C@@H](CC(C)C)C(=O)N[C@H](C=O)CCCNC(=N)N` [Leupeptin, leupeptin]: the “induction of Hsp70 by protease inhibitors (FIG. 3A)” value in the data set with Hsp70 was “ineffective”.
With `Cc1c2oc3c(C)ccc(C(=O)N[C@@H]4C(=O)N[C@H](C(C)C)C(=O)N5CCC[C@H]5C(=O)N(C)CC(=O)N(C)[C@@H](C(C)C)C(=O)O[C@@H]4C)c3nc-2c(C(=O)N[C@@H]2C(=O)N[C@H](C(C)C)C(=O)N3CCC[C@H]3C(=O)N(C)CC(=O)N(C)[C@@H](C(C)C)C(=O)O[C@@H]2C)c(N)c1=O` [actinomycin D] (I: T[dV]P[Sar][NMeV] / II: T[dV]P[Sar][NMeV]; ester I:1-I:C, II:1-II:C; linker I:N-II:N via Actinocin(9to1)), in the data set on hsp70, i.e. hsp72, mRNA, the “effect of co-treatment on ALLN-induced increase in hsp72 mRNA” value was “abolished the effects of ALLN”.
As to `CC(C)C[C@@H](C=O)NC(=O)[C@H](CC(C)C)NC(=O)[C@H](CC(C)C)NC(=O)OCc1ccccc1` [MG132, Cbz-leucyl-leucyl-leucinal] (Cbz-Leu-Leu-Leu-aldehyde), the “induction of Hsp70 levels by proteasome inhibitors (FIG. 9)” value in the data set on Hsp70 (4 hours, MG132 10 μM or 30 μM, lactacystin 10 μM, 30 min labeling) was “induced Hsp70 levels dramatically”. For the same molecule, in the data set with HepG2 cells, the “toxicity to the cells (TCA-precipitable radioactivities)” value is listed as “without obvious toxicity”.
With aprotinin, the “induction of Hsp70 by protease inhibitors (FIG. 3A)” value in the data set on Hsp70 is listed as “No induction”.
